Test system: Sprague Dawley rats, DSS-induced colitis
Test: Rat colitis model: 9 days of 3% DSS-containing drinking water
Format: in vivo
Settings: 100 mg/kg PO, QD; compared to DSS alone, from Day 5
Experimental: In this model, colitis was induced in SD rats by 9 days of ad lib exposure to drinking water containing 3% DSS. The disease activity index (DAI) score and ratio of colon weight:colon length were compared between three study groups (n=6 rats/group): vehicle, 3% DSS, and 3% DSS with positive control (sulfasalazine administered at 100 mg/kg PO, QD).
Acute colitis was induced by feeding female Sprague Dawley rats with 3% (wt/vol) DSS dissolved in drinking water. […] A neutralizing anti-IL-23p19 antibody was used as a comparator, and was administered intraperitoneally at 4 mg/kg on the same day and fifth day after starting DSS. To quantify colitis with clinical activity, disease activity index (DAI) was determined daily for each animal as an average of three parameters: body weight change (scale 0-3), stool consistency (scale 0-3) and hemoccult blood (scale 0-3), as shown in Table 15. At necropsy, the entire colon was removed from the cecum to the rectum. The colon was measured for length, flushed with PBS to remove feces, weighed, and opened longitudinally to determine macroscopic score.
Statistical analysis for significance was compared to the vehicle treated group and was determined using Student's T-test (GraphPad Prism). Differences were noted as significant *p<0.05, **p<0.01, ***p<0.001, ****p<0.0001.

## O=C(O)c1cc(/N=N/c2ccc(S(=O)(=O)Nc3ccccn3)cc2)ccc1O [sulfasalazine]
  disease activity index (DAI) score: attenuated the disease score
